Experiments:
[1] = tested on: mGluRs 1, 2, 3, 4, 7 and 8; test: Selectivity versus other mGluRs
[2] = molecular target: MPEP allosteric binding site on mGluR5 (Rattus norvegicus, UniProt P31424); test: Displacement of [3H]3-methoxy-5-
Chain of MPEP allosteric binding site on mGluR5 (P31424 21-1203): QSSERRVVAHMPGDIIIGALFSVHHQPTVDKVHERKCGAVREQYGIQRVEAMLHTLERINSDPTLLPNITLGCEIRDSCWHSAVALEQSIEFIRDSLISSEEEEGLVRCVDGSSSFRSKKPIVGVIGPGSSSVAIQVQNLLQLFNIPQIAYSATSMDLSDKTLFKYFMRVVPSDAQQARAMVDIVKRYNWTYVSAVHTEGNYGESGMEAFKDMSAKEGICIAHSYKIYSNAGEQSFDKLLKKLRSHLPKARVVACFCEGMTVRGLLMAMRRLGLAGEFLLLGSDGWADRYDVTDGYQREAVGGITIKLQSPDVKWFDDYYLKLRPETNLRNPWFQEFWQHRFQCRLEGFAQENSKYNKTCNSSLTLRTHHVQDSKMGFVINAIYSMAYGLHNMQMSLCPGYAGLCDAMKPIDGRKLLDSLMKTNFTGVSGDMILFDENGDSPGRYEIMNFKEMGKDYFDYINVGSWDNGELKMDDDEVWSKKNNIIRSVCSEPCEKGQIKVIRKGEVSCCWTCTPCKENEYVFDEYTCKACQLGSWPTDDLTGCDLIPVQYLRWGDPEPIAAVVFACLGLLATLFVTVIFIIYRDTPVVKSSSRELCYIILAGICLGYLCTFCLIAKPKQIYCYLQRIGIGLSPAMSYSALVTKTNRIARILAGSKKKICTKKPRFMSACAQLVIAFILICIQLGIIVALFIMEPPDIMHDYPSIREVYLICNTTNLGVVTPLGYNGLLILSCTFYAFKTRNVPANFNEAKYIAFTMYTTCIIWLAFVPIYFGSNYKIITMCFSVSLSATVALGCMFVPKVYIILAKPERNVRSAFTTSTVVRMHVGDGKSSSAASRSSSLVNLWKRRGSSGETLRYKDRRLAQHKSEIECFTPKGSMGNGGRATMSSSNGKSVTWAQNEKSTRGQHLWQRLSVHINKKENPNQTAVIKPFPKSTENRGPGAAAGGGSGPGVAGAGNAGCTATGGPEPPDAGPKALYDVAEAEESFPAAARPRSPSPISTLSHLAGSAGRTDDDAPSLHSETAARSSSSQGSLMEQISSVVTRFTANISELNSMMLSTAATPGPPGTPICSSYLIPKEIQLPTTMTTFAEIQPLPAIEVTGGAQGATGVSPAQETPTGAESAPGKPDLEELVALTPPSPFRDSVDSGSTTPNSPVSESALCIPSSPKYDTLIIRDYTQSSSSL

Row | SMILES | selectivity versus mGluRs 1, 2, 3, 4, 7 and 8 [1] | Ki [2]
1 | COc1ccccc1C(=O)Nc1cccc(NC(=O)c2cccc(Cl)c2)c1 [compound 8] | selective | 1100 nM
2 | O=C(Nc1ccccc1O)c1cccc(N2C(=O)c3ccccc3C2=O)c1 [compound 9, 3-(phthalimidyl)-N-(2-hydroxyphenyl)benzamide] | selective | 319 nM

Reference: PMC3177597 (Bioorganic & medicinal chemistry letters, 2009)
